Laboratory results taken from ChEMBL document CHEMBL1155106, “Progesterone receptor antagonists with a 3-phenylquinazoline-2,4-dione/2-phenylisoquinoline-1,3-dione skeleton” (Bioorg Med Chem, 2008).
Calls of active or inactive are those of the source. The rule behind the calls is not given here.

Experiments:
[1] = biological target: T1, Progesterone receptor (Homo sapiens) (UniProt P06401); assay: Antagonist activity at progesterone receptor in human T47D cells assessed as inhibition of progesterone-induced alkaline phosphatase activity at 100 uM; format: functional, cell-based
T1 sequence (whole entry): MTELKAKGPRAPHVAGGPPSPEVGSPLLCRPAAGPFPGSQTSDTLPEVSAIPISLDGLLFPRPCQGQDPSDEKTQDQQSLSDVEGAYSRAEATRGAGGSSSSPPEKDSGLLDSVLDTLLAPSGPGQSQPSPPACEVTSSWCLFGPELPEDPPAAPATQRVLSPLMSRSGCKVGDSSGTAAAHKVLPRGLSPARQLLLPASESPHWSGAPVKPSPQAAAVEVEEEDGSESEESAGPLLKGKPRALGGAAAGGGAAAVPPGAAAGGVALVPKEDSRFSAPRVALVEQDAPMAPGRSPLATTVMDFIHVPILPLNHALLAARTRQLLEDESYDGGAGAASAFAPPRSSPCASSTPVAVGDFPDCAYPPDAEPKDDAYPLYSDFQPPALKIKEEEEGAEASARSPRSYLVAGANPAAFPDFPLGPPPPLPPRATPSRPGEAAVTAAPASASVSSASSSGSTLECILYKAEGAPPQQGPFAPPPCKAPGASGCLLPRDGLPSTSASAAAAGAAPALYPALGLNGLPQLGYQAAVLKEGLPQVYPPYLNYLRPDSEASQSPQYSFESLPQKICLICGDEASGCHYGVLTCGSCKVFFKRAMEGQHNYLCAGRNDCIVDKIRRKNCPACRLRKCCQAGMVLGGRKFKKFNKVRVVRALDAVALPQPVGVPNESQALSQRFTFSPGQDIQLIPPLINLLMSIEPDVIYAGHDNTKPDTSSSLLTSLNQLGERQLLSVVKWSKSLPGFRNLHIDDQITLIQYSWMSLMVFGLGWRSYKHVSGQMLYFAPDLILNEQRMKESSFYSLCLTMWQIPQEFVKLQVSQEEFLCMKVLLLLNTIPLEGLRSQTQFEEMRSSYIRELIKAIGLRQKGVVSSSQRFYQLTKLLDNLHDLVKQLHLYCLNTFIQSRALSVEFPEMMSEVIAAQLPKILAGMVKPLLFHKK

[2] = biological target: T2, Progesterone receptor (Homo sapiens, UniProt P06401); assay: Antagonist activity at progesterone receptor in human T47D cells assessed as inhibition of progesterone-induced alkaline phosphatase activity; format: functional, cell-based
T2 sequence (P06401 whole entry): T1 sequence (whole entry)

[3] = biological target: T2, Progesterone receptor; assay: Antagonist activity at human progesterone receptor expressed in CHO cells assessed as […] luciferase activity by reporter gene assay; format: functional, cell-based
[4] = biological target: T3, Estrogen receptor (Homo sapiens) (UniProt P03372); assay: Displacement of [3H]estradiol from estrogen receptor expressed in human T47D cells; format: cell-based
T3 sequence (whole entry): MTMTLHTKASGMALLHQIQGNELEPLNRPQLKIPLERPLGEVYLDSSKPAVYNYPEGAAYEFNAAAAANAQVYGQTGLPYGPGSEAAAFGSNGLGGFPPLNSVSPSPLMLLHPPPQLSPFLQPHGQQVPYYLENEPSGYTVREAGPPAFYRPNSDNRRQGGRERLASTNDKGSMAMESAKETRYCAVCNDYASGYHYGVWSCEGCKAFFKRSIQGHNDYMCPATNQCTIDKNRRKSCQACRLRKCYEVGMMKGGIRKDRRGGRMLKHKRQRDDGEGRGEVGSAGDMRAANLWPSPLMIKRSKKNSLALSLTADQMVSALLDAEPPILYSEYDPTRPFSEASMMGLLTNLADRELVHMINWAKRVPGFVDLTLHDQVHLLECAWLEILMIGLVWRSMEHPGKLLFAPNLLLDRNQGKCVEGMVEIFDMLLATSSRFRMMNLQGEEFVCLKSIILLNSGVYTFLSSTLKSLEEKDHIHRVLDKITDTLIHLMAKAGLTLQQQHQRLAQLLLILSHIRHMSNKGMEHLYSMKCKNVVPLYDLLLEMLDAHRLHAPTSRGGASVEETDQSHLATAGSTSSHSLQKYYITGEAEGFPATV

[5] = biological target: T4, Androgen receptor (Homo sapiens) (UniProt P10275); assay: Displacement of [3H]testosterone from androgen receptor expressed in human T47D cells; format: cell-based
T4 sequence (whole entry): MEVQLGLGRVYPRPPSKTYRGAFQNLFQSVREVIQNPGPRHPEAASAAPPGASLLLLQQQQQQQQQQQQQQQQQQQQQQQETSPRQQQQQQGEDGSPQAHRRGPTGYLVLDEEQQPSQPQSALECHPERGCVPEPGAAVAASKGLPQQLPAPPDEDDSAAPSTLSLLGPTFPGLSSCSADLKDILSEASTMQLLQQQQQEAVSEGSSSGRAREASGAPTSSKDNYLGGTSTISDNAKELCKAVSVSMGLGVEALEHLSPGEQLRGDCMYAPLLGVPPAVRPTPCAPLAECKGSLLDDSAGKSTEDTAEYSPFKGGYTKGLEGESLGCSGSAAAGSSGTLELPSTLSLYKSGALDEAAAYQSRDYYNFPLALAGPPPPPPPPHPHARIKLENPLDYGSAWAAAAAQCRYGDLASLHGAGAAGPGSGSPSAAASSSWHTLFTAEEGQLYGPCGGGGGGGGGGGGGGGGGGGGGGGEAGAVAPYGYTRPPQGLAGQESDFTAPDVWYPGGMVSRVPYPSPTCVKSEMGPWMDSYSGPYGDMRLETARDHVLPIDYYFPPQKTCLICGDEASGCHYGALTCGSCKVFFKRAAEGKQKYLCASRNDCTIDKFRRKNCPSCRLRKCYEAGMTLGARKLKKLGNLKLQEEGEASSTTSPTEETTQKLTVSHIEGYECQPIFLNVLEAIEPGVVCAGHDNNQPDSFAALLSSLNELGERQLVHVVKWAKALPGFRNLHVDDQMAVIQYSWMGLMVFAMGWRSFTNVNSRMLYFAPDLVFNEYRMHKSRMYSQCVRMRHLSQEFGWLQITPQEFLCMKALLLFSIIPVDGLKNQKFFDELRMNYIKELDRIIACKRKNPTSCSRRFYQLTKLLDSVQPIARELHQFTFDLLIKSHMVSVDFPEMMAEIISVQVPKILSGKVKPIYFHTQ

[6] = biological target: T1, Progesterone receptor (Homo sapiens); assay: Agonist activity at human progesterone receptor expressed in CHO cells assessed as […] luciferase activity by reporter gene assay; format: functional, cell-based
[7] = biological target: T1, Progesterone receptor (Homo sapiens); assay: Agonist activity at progesterone receptor in human T47D cells assessed as induction of alkaline phosphatase activity
[8] = biological target: T1, Progesterone receptor (Homo sapiens); assay: Antagonist activity at human progesterone receptor expressed in CHO cells assessed as inhibition of progesterone-induced luciferase activity by reporter gene assay at 100 uM; format: functional, cell-based

IC50 [2]	IC50 [3]	SMILES	also measured
–	–	O=C1CC(O)C(N2C(=O)c3ccc(O)cc3C2=O)C(=O)N1 (stereo not drawn)	inhibition [1]: 29.4%
1100 nM	1.5 µM	O=C1c2ccccc2C2(CCCCC2)C(=O)N1c1ccc(Cl)cc1	–
74 nM	0.078 µM	CCC1(CC)C(=O)N(c2ccc(C#N)cc2)C(=O)c2ccccc21	Activity [4]: inactive; Activity [5]: inactive
880 nM	0.45 µM	N#Cc1ccc(N2C(=O)c3ccccc3C3(CCCCC3)C2=O)cc1	–
23000 nM	18 µM	CCCn1c(=O)n(-c2ccccc2)c(=O)c2ccccc21	Activity [6]: inactive; Activity [7]: inactive
250 nM	0.28 µM	CCC1(CC)C(=O)N(c2ccc(Cl)cc2)C(=O)c2ccccc21	–
1200 nM	0.69 µM	N#Cc1ccc(N2C(=O)c3ccccc3C3(CCCC3)C2=O)cc1	–
3400 nM	5.8 µM	CC1(C)C(=O)N(c2cccc(Cl)c2)C(=O)c2ccccc21	–
1100 nM	1 µM	CCCC1(CCC)C(=O)N(c2ccc(Cl)cc2)C(=O)c2ccccc21	–
110 nM	0.15 µM	C=CCC1(CC=C)C(=O)N(c2ccc(C#N)cc2)C(=O)c2ccccc21	–
11000 nM	17 µM	COc1ccc(N2C(=O)c3ccccc3C(C)(C)C2=O)cc1	–
1600 nM	1.8 µM	CC1(C)C(=O)N(c2ccc(C#N)cc2)C(=O)c2ccccc21	–
4100 nM	4.9 µM	CC1(C)C(=O)N(c2ccccc2Cl)C(=O)c2ccccc21	–
20000 nM	26 µM	CC1(C)C(=O)N(c2ccccc2)C(=O)c2ccccc21	–
–	–	O=C1CCC(N2C(=O)c3ccc(O)cc3C2=O)C(=O)N1O (stereo not drawn)	inhibition [1]: 53.7%
6800 nM	8.9 µM	CC1(C)C(=O)N(c2ccc(F)cc2)C(=O)c2ccccc21	–

IC50 [2]	IC50 [3]	SMILES	also measured
–	–	O=c1[nH]c2ccccc2c(=O)n1-c1ccccc1	Activity [6]: inactive; inhibition [1]: 34%; Activity [7]: inactive
–	–	O=C1CC(O)C(N2C(=O)c3ccccc3C2=O)C(=O)N1 (stereo not drawn)	inhibition [1]: 30.6%
1300 nM	2.1 µM	O=C1c2ccccc2C2(CCCC2)C(=O)N1c1ccc(Cl)cc1	–
1300 nM	3.3 µM	CC1(C)C(=O)N(c2ccc(Cl)cc2)C(=O)c2ccccc21	–
–	–	O=C1CCC(N2C(=O)c3cccc(O)c3C2=O)C(=O)N1O (stereo not drawn)	inhibition [1]: 30.7%
10000 nM	11 µM	CC1(C)C(=O)N(c2cccc(F)c2)C(=O)c2ccccc21	–
8100 nM	8.9 µM	Cc1ccc(N2C(=O)c3ccccc3C(C)(C)C2=O)cc1	–
–	–	O=C1Cc2ccccc2C(=O)N1c1ccccc1	inhibition [1]: 25%; inhibition [8]: 38%
–	–	O=C1CCC(N2C(=O)c3ccccc3C2=O)C(=O)N1O (stereo not drawn)	inhibition [1]: 42.5%
400 nM	0.85 µM	C=CCC1(CC=C)C(=O)N(c2ccc(Cl)cc2)C(=O)c2ccccc21	–
120 nM	0.14 µM	CCCC1(CCC)C(=O)N(c2ccc(C#N)cc2)C(=O)c2ccccc21	–
30000 nM	34 µM	CCn1c(=O)n(-c2ccccc2)c(=O)c2ccccc21	Activity [6]: inactive; Activity [7]: inactive
84000 nM	–	Cn1c(=O)n(-c2ccccc2)c(=O)c2ccccc21	Activity [6]: inactive; Activity [7]: inactive
–	–	O=C1CCC(N2C(=O)c3ccccc3C2=O)C(=O)N1 (stereo not drawn)	Activity [1]: inactive
11000 nM	15 µM	O=c1c2ccccc2n(Cc2ccccc2)c(=O)n1-c1ccccc1	Activity [6]: inactive; Activity [7]: inactive
13000 nM	10 µM	CC1(C)C(=O)N(c2ccccc2F)C(=O)c2ccccc21	–
